Source: the supplement of paper PMC10290057
Counter-ions that a name gives are not always drawn.

How the values were obtained:
HCT116 [1] = assay: efficacy (fitted maximal change in viability relative to DMSO control); higher = less cytotoxic (negative = loss of viability); conditions: 48 h
HCT116 [2] = assay: AC50 cell viability (CellTiter-Glo); higher = less potent; conditions: 48 h
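For AC50 cell viability (CellTiter-Glo) in this document: HCT116 colorectal carcinoma cells screened at five concentrations per compound, luminescent viability scaled between DMSO wells and empty wells on each plate, curves fitted per compound.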
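For efficacy (fitted maximal change in viability relative to DMSO control) in this document: Luminescence-based viability readout, five doses per compound, normalized against on-plate DMSO and empty-well controls, followed by dose-response curve fitting for every drug.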

| Structure (SMILES) | efficacy (HCT116 [1]) | AC50 cell viability (HCT116 [2]) |
| --- | --- | --- |
| O=C1NC(=O)[C@@H](c2c[nH]c3ccccc23)[C@H]1c1cn2c3c(cccc13)CCC2 [Tivantinib (ARQ 197)] | -62.9% | 0.934 µM |
| C[N]1C=C(C2=CC=CC=C12)/C3=C(/C(=O)NC3=O)C4=C[N](C)C5=CC(=CC=C45)[N+]([O-])=O [MKC-1] | -87.5% | 1.86 µM |
| COCCNCc1ccc(-c2cc3nccc(Oc4ccc(NC(=O)C5(C(=O)Nc6ccc(F)cc6)CC5)cc4F)c3s2)nc1 [Sitravatinib] | -104% | 6.61 µM |
| C[N]1C=NC=C1[C@@](N)(C2=CC=C(Cl)C=C2)C3=CC=C4N(C)C(=O)\C=C(\C5=CC=CC(=C5)Cl)C4=C3 [Tipifarnib] | -107% | 9.34 µM |
| O=[N+]([O-])c1ccc(O)c2ncccc12 [Nitroxoline] | -96.2% | 10.5 µM |
| CCN(CC)CCOc1ccc(/C(=C(\Cl)c2ccccc2)c2ccccc2)cc1 [Clomifene citrate] | -90.7% | 8.33 µM |
| C[C@@H]1CC[C@@]2(OC1)O[C@H]3C[C@H]4[C@@H]5C/C=C6/C[C@H](CC[C@]6(C)[C@H]5CC[C@]4(C)[C@H]3[C@@H]2C)O[C@@H]7O[C@H](CO)[C@@H](O[C@@H]8O[C@@H](C)[C@H](O)[C@@H](O)[C@H]8O)[C@H](O)[C@H]7O[C@@H]9O[C@@H](C)[C@H](O)[C@@H](O)[C@H]9O [Dioscin] | -101% | 5.25 µM |
| C/C=C(/C)C(=O)O[C@H]1C(C)=C2[C@H]([C@@H]1OC(=O)CCCCCCC)[C@@](C)(OC(C)=O)C[C@H](OC(=O)CCC)[C@@]1(O)[C@H]2OC(=O)[C@@]1(C)O [Thapsigargin] | -93.2% | 0.0525 µM |
| O=C(Nc1nnc(-c2ccco2)o1)c1cc(-c2ccccc2)nc2ccccc12 [STX-0119] | -69.9% | 14.8 µM |
| CN(C)C/C=C/C(=O)Nc1ccc(C(=O)N2CCC[C@@H](Nc3ncc(Cl)c(-c4c[nH]c5ccccc45)n3)C2)cc1 [THZ531] | -74.2% | 0.132 µM |
| Cc1noc2c1-c1ccccc1C(c1ccc(Cl)cc1)=N[C@H]2CC(N)=O [CPI-0610] | -65.4% | 1.05 µM |
| NCCCN([C@H](CC#C)C/1=N/C2=C(C=CC(=C2)Cl)C(=O)N1NC3=CC=CC=C3)C(=O)C4=CC=CC(=C4F)Cl [ARQ-621] | -102% | 0.468 µM |
| COC(=O)C/1=C(C)/N/C(=C(\C1C2=CC(=CC=C2)[N+]([O-])=O)C(=O)OCCCN3CCC(CC3)(C4=CC=CC=C4)C5=CC=CC=C5)C (stereo not given) [Niguldipine] | -98.1% | 8.33 µM |
| CCC[S+](=O)([O-])Nc1ccc(F)c(C(=O)c2c[nH]c3ncc(Cl)cc23)c1F [PLX-4720] | -38.4% | 16.6 µM |
| C=CC(=O)N1CCC(C2CCNc3c(C(N)=O)c(-c4ccc(Oc5ccccc5)cc4)nn32)CC1 (stereo not given) [BGB-3111] | -62.4% | 18.6 µM |
| CCCCOc1c(C(=O)c2c(F)cc(C)cc2F)cnc2[nH]ncc12 | -75.8% | 1.32 µM |
| Cn1ncc(Cl)c1-c1cc(C(=O)NC(CN)Cc2ccc(F)c(F)c2)oc1Cl (stereo not given) | -117% | 13.2 µM |
| O=C1N\N=C(\CC2=CC=CC(=C2)C(=O)N3CCN(CC3)C4=NC=CC=C4C#N)C5=CC=CC=C15 [AZ-9482] | -54.2% | 5.25 µM |
| COc1cc(OC)c(/C=C/[S+](=O)([O-])Cc2ccc(OC)c(NCC(=O)[O-])c2)c(OC)c1 | -58.9% | 0.0661 µM |
| Cc1ccc([C@@H]2O[C@H](CO)[C@@H](O)[C@H](O)[C@H]2O)cc1Cc1ccc(-c2ccc(F)cc2)s1 [Canagliflozin] | -83.7% | 23.5 µM |

| Structure (SMILES) | efficacy (HCT116 [1]) | AC50 cell viability (HCT116 [2]) |
| --- | --- | --- |
| COc1ccc(CCN(C)CCCC(C#N)(c2ccc(OC)c(OC)c2)C(C)C)cc1OC (stereo not given) [Verapamil] |  | 18.6 µM |
| Cc1ccc(C(=O)Nc2ccc(CN3CCN(C)CC3)c(C(F)(F)F)c2)cc1C#Cc1cnc2cccnn12 [Ponatinib] |  | 1.48 µM |
| OCCOc1ccc(/C(=C(/CCCl)c2ccccc2)c2ccccc2)cc1 [Ospemifene] | -49.5% |  |
| CC(C)C1CCC(C(=O)N[C@H](Cc2ccccc2)C(=O)O)CC1 (stereo not given in full) [Nateglinide] | -11% |  |
| C=CC(=O)Nc1ccc(F)c(-c2ncnc3[nH]cc(C(=O)OCC)c23)c1 [JAK3i] | -66% |  |
| CC[C@H](C)C(=O)O[C@H]1C[C@H](O)\C=C2\C=C/[C@H](C)[C@H](CC[C@@H](O)C[C@@H](O)CC(O)=O)[C@@H]12 [Pravastatin sodium] | -7.8% |  |
| COC1=CC=C(C=C1)C2CC(=N/N2C3=CC=C(C=C3)[S+](N)([O-])=O)\C4=CC=CC=C4 (stereo not given) [ML-141] | -60% |  |
| CN[C@@H](C)C(=O)N[C@H](C(=O)N1CCC[C@H]1C(=O)Nc1snnc1-c1ccccc1)C1CCCCC1 [GDC-0152] | -13.4% |  |
| Cc1cccc(-c2nn(C(=S)Nc3ccccc3)cc2-c2ccnc3ccccc23)n1 [A-83-01] | -22.3% |  |
| C[S+](=O)([O-])N(Cc1ccco1)CC(O)Cn1c2ccccc2c2ccccc21 (stereo not given) [KL001] | -21.8% |  |
| O=C(O)CNC(=O)C1C(=O)N(C2CCCCC2)C(=O)N(C2CCCCC2)C1=O [Daprodustat] | -6.36% |  |
| COC(=O)N[C@H](C(=O)N1CCC[C@H]1c1ncc(-c2ccc(-c3ccc(-c4cnc([C@@H]5CCCN5C(=O)[C@@H](NC(=O)OC)C(C)C)[nH]4)cc3)cc2)[nH]1)C(C)C [Daclatasvir dihydrochloride] | -112% |  |
| CC#CCn1c(N2CCC[C@@H](N)C2)nc2c1c(=O)n(Cc1nc(C)c3ccccc3n1)c(=O)n2C [Linagliptin] | -31.7% |  |
| C\C1=C(/C)C(=O)\C(=C(\C)C1=O)C(CCCCCC(O)=O)C2=CC=CC=C2 (stereo not given) [Seratrodast] | -11.8% |  |
| CCNC(=O)Nc1ncc(-c2cc(-c3c(C)cc(OC)cc3C)nc(-c3cnccn3)n2)s1 [BMS-4] | 14% |  |
| CC/1=C/2C[C@H]3C(=C)CCC[C@]3(C)/C=C2OC1=O [Atractylenolide I] | 6.55% |  |
| C[C@H]1COC2=C3N1\C=C(C(O)=O)/C(=O)C3=CC(=C2N4CCN(C)CC4)F [Levofloxacin] | -12.3% |  |
| CC(C)OC(=O)C(C(=O)OC(C)C)=C1S\C=C/S1 [Malotilate] | -26.9% |  |
| CN1C(=O)COc2c(C(=O)NC3CN4CCC3CC4)cc(Cl)cc21 (stereo not given) [Azasetron hydrochloride] | 21.5% |  |
| CC(C)(C#N)c1cc(Cn2cncn2)cc(C(C)(C)C#N)c1 [Anastrozole] | -11.5% |  |

| Structure (SMILES) | efficacy (HCT116 [1]) | AC50 cell viability (HCT116 [2]) |
| --- | --- | --- |
| CC/C(=C(/c1ccc(O)cc1)c1ccc(OCCNC)cc1)c1ccccc1 [Endoxifen] | -71.8% |  |
| CC[C@@H]1C(=O)N(C)c2cnc(Nc3ccc(C(=O)NC4CCN(C)CC4)cc3OC)nc2N1C1CCCC1 [BI-2536] | -71.6% |  |
| C[C@@H](O)[C@@H]1NC(=O)[C@H](CCCCN)NC(=O)[C@@H](Cc2c[nH]c3ccccc23)NC(=O)[C@H](Cc2ccccc2)NC(=O)[C@@H](NC(=O)[C@H](N)Cc2ccccc2)CSSC[C@@H](C(=O)N[C@H](CO)[C@@H](C)O)NC1=O [Octreotide] | 9.15% |  |
| COc1ccc(C(=O)N2CCCC2=O)cc1 [Aniracetam] | -17.4% |  |
| C/C=C/C(=O)N(CC)c1ccccc1C [Crotamiton] | 6.9% |  |
| Clc1ccc(Nc2nnc(Cc3ccncc3)c3ccccc23)cc1 [Vatalanib] | -27.3% |  |
| COC1=CC(=CC(=C1CN(C)C)OC)\C2=C\N(C)C(=O)C3=C2C=CN=C3 [BI-7273] | -29.9% |  |
| CN[C@H](CC(C)C)C(=O)N[C@H]1C(=O)N[C@@H](CC(N)=O)C(=O)N[C@H]2C(=O)N[C@H]3C(=O)N[C@H](C(=O)N[C@H](C(=O)O)c4cc(O)cc(O)c4-c4cc3ccc4O)[C@H](O)c3ccc(c(Cl)c3)Oc3cc2cc(c3O[C@@H]2O[C@H](CO)[C@@H](O)[C@H](O)[C@H]2O[C@H]2C[C@](C)(N)[C@H](O)[C@H](C)O2)Oc2ccc(cc2Cl)[C@H]1O [Vancomycin hydrochloride] | -27% |  |
| Nc1nc(OC(c2ccc(-c3cccc(F)c3)cc2)C(F)(F)F)cc(-c2ccc(C[C@@H](N)C(=O)O)cc2)n1 (stereo not given in full) | -26% |  |
| Cc1cc(C)c(/C=C2\C(=O)Nc3ccccc32)[nH]1 [Semaxanib] | -29.1% |  |
| CCOC(=O)N[C@@H]1CC[C@@H]2[C@@H](C1)C[C@H]1C(=O)O[C@H](C)[C@H]1[C@H]2/C=C/c1ccc(-c2cccc(F)c2)cn1 [Vorapaxar] | -40.6% |  |
| CC(C)NCC(O)c1ccc(N[S+](C)(=O)[O-])cc1 (stereo not given) [Sotalol] | -17.6% |  |
| Cn1cc(C[C@@H](N)C(=O)O)c2ccccc21 [Indoximod] | -9.77% |  |
| COC1(C[S+]([O-])c2ccccc2)CCN(CCc2c[nH]c3ccc(F)cc23)CC1 (stereo not given) | -18.2% |  |
| NNc1nncc2ccccc12 [Apresoline] | 28.9% |  |
| CN[C@@H](C)[C@H]1[C@H](O)C[C@@]2(C)[C@@H]3CC[C@H]4C(C)(C)[C@@H](NC)CC[C@@]45C[C@@]35CC[C@]12C [Cyclovirobuxin D] | -29.5% |  |
| Cc1cc(C)c([S+](=O)([O-])N(CCc2cccc(Br)c2)Cc2ccc(-c3cccc([S+](C)(=O)[O-])c3)cc2)c(C)c1 [SR-9243] | 15.4% |  |
| CC(=O)O[C@H]1C[C@@H]2CC[C@@H]3[C@H](CC[C@@]4(C)[C@H]3C[C@H]([N+]3(C)CCCCC3)[C@@H]4OC(C)=O)[C@@]2(C)C[C@@H]1[N+]1(C)CCCCC1 [Pancuronium bromide] | -8.83% |  |
| CC1(C)O[C@@H]2C[C@H]3[C@@H]4C[C@H](F)C/5=C/C(=O)/C=C\[C@]5(C)[C@@]4(F)[C@@H](O)C[C@]3(C)[C@@]2(O1)C(=O)CO [Fluocinolone acetonide] | -10.6% |  |
| CCCCC(=O)O[C@@]1([C@@H](C)C[C@H]2[C@@H]3CCC/4=C/C(=O)/C=C\[C@]4(C)[C@@]3(F)[C@@H](O)C[C@]12C)C(=O)CO [Betamethasone valerate] | -7.12% |  |
